Data as given in patent publication US6831079B1, “Vasopressin agonist formulation and process” (American Cyanamid Company, priority 1999, dated 2004).
Blank lines part the entries; values can stand above or below the compound they belong to.

Columns and labels:
Vasopressin V2 = Vasopressin V2 (Rattus norvegicus, UniProt Q00788); assay: Vasopressin V2 agonist effects in normal conscious water-loaded rats; format: in vivo; design: from tissue; host or cells: whole living Sprague-Dawley rat; the receptor is the animal's own (renal, by own knowledge); conditions: Sprague-Dawley (CD) rats, 10 mg/kg oral; for Osmolality (% Increase): change in osmolality as percent of control; for Urine Volume (% decrease): vs. control, urine collected four hours
Sequence of Vasopressin V2 (Q00788 whole entry): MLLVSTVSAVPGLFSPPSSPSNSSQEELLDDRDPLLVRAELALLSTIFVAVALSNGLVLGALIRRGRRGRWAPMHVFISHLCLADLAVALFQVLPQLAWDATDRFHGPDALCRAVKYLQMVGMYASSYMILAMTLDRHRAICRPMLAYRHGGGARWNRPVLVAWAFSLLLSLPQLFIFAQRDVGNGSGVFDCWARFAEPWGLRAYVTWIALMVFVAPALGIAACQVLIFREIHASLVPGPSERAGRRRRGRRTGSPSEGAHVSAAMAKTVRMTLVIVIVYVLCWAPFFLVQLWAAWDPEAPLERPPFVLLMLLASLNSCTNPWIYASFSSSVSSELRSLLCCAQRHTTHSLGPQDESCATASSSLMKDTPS
Method in brief: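 Sprague-Dawley rats (350-500 g, either sex) dosed orally at 10 mg/kg in 20% DMSO/2.5% corn starch, then water-loaded by gavage (30 ml/kg) 30 min later. Urine was collected for 4 h post-dose without food or water. Endpoints were volume, osmolality and Na+, K+, Cl−, with two to three rats per compound.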

Structure (SMILES): Cc1noc(-c2ccc(C(=O)N3Cc4cccn4Cc4ccccc43)cc2)n1 [Example 52, [4-(3-Methyl[1,2,4]oxadiazol-5-yl)-phenyl]-(5H,11H-pyrrolo-[2,1-c][1,4]-benzodiazepin-10-yl)-methanone]
- Osmolality (% Increase) (Vasopressin V2): 261%
- Urine Volume (% decrease) (Vasopressin V2): 66%
- melting point: 177 to 179 °C

Structure (SMILES): O=C(c1ccc(-n2ccc(C(F)(F)F)n2)cc1)N1Cc2cccn2Cc2ccccc21 [Example 62, (5H,11H-Pyrrolo[2,1-c][1,4]benzodiazepin-10-yl)-[4-(3-trifluoromethyl-pyrazol-1-yl)-phenyl]-methanone]
- Osmolality (% Increase) (Vasopressin V2): 150%
- Urine Volume (% decrease) (Vasopressin V2): 22%
- melting point: 166 to 167 °C

Structure (SMILES): Cc1ccn(-c2ccc(C(=O)N3Cc4ccc(CN(C)C)n4Cc4ccccc43)c(Cl)c2)n1 [Example 87, [2-Chloro-4-(3-methyl-pyrazol-1-yl)-phenyl]-(3-dimethylaminomethyl-5H,11H-pyrrolo[2,1-c][1,4]benzodiazepin-10-yl)-methanone]
- Osmolality (% Increase) (Vasopressin V2): 214%
- Urine Volume (% decrease) (Vasopressin V2): 71%
- melting point: 100 to 102 °C

Structure (SMILES): Cn1cc(-c2ccc(C(=O)N3Cc4cccn4Cc4ccccc43)cn2)cn1 [Example 57, [6-(1-Methyl-1H-pyrazol-4-yl)-pyridin-3-yl]-(5H,11H-pyrrolo[2,1-c][1,4]-benzodiazepin-10-yl)-methanone]
- Osmolality (% Increase) (Vasopressin V2): 288%
- Urine Volume (% decrease) (Vasopressin V2): 77%
- melting point: 173 to 175 °C

The remaining lines, values ahead:

- Osmolality (% Increase) (Vasopressin V2): 86%
- Urine Volume (% decrease) (Vasopressin V2): 5%
- melting point: 218 to 220 °C
Structure (SMILES): O=C(c1ccc(-c2nnn[nH]2)cc1Cl)N1Cc2cccn2Cc2ccccc21 [Example 86, [2-Chloro-4-(1H-tetrazol-5-yl)-phenyl]-(5H,11H-pyrrolo[2,1-c][1,4]benzodiazepin-10-yl)-methanone]

- Osmolality (% Increase) (Vasopressin V2): 264%
- Urine Volume (% decrease) (Vasopressin V2): 84%
- melting point: 148.5 to 150 °C
Structure (SMILES): Cn1ccc(-c2ccc(C(=O)N3Cc4cccn4Cc4ccccc43)c(Cl)c2)n1 [Example 71, [2-Chloro-4-(1-methyl-1H-pyrazol-3-yl)-phenyl]-(5H,11H-pyrrolo[2,1-c]-[1,4]benzodiazepine-10-yl)-methanone]

- Osmolality (% Increase) (Vasopressin V2): 376%
- Urine Volume (% decrease) (Vasopressin V2): 76%
- melting point: 155 to 156 °C
Structure (SMILES): Cc1cnn(-c2ccc(C(=O)N3Cc4cccn4Cc4ccccc43)c(Cl)n2)c1 [Example 101, [2-Chloro-6-(4-methylpyrazol-1-yl)-pyridin-3-yl](5H,11H-pyrrolo[2,1-c][1,4]benzodiazepin-10-yl)-methanone]
